Source: patent US11236122B2, “Triterpene amine derivatives” (DFH THERAPEUTICS, priority 2018, dated 2022)
Counter-ions that a name gives are not always drawn.

Key:
pNL4-3 SP1-V7A = assay: CA-SP1 accumulation assay, SP1-V7A derivative; type: cell-based, HIV-1; conditions: HeLa or 293T cells; for % CA-SP1 Accumulation 10 nM SP1 V7A: 10 nM compound; for % CA-SP1 Accumulation 100 nM SP1 V7A: 100 nM compound
Description: (§1) Cell culture, plasmids and transfections. The MT-4 T-cell line was maintained in RPMI-1640 medium supplemented with 10% (vol/vol) fetal bovine serum (FBS), 2 mM glutamine, 100 U/mL penicillin and 100 μg/mL streptomycin at 37° C. in a humidified 5% CO2 atmosphere. HeLa and 293T cells were maintained in Dulbecco's modified Eagle's medium (DMEM) supplemented with 5% (vol/vol) FBS, 2 mM glutamine, 100 U/mL penicillin and 100 μg/mL streptomycin. Molecular clones used in this study were WT pNL4-3 and the derivative encoding a Val-to-Ala mutation at SP1 residue 7, referred to as SP1-V7A. The MT-4 T-cell line was transfected the DEAE/dextran procedure; HeLa and 293T cells were transfected with linear polyethylenimine (L-PEI) or Lipofectamine 2000 (Invitrogen) as recommended by the supplier.
(§2) CA-SP1 accumulation assay. For CA-SP1 accumulation assays, HeLa or 293T cells were transfected with WT pNL4-3 or the SP1-V7A derivative. At 24 h post-transfection, cells were starved in Met/Cys-free medium for 30 min and metabolically labeled with [^35S]Met/Cys-Pro-mix (Amersham) for 2-3 h. Maturation inhibitors were maintained in the cultures throughout the transfection and labeling period. Viruses were collected by ultracentrifugation at 99,000×g for 45-60 min. Virus pellets were resuspended in Triton X-100 lysis buffer [300 mM NaCl, 50 mM Tris-HCl (pH 7.5), 0.5% Triton X-100, 10 mM iodoacetamide, and protease inhibitor cocktail tablets (Roche)]. CA and CA-SP1 proteins were separated on 13.5-15% polyacrylamide gels by SDS-polyacrylamide gel electrophoresis, exposed to a phosphorimager plate (Fuji) and quantified by Quantity One software (Bio-Rad).

WT pNL4-3 = assay: CA-SP1 accumulation assay, WT NL4-3; type: cell-based, HIV-1; conditions: HeLa or 293T cells; for % CA-SP1 Accumulation 10 nM NL4-3: 10 nM compound; for % CA-SP1 Accumulation 100 nM NL4-3: 100 nM compound
Description: as §1, §2

SMILES | % CA-SP1 Accumulation 10 nM SP1 V7A (pNL4-3 SP1-V7A) | % CA-SP1 Accumulation 100 nM SP1 V7A (pNL4-3 SP1-V7A) | % CA-SP1 Accumulation 10 nM NL4-3 (WT pNL4-3) | % CA-SP1 Accumulation 100 nM NL4-3 (WT pNL4-3)
C=C(C)[C@@H]1CC[C@]2(CCNCCCN3CCCC3)CC[C@]3(C)[C@H](CC[C@@H]4[C@@]5(C)CC[C@H](OC(=O)CC(C)(C)C(=O)O)C(C)(C)[C@@H]5CC[C@]43C)[C@@H]12 [Compound 51z, (3β)-17-[2-[[3-(1-Pyrrolidinyl)propyl]amino]ethyl]-28-norlup-20(29)-en-3-ol, 3-(1-Hydrogen 2,2-Dimethylbutanedioate) Sulfate] | 7.5% | 10.5% | 9.5% | 19.9%
C=C(C)[C@@H]1CC[C@]2(CCNCCCN3CCN(CCO)CC3)CC[C@]3(C)[C@H](CC[C@@H]4[C@@]5(C)CC[C@H](OC(=O)CC(C)(C)CC(=O)O)C(C)(C)[C@@H]5CC[C@]43C)[C@@H]12 [Compound 51d, (3β)-17-[2-[[3-[4-(2-Hydroxyethyl)piperazin-1-yl]propyl]amino]ethyl]-28-norlup-20(29)-en-3-ol, 3-(Hydrogen 3,3-Dimethylpentanedioate)] | – | 20.4 (3) % | – | 71.6 (3) %
C=C(C)[C@@H]1CC[C@]2(CCNCCN3CCC(O)CC3)CC[C@]3(C)[C@H](CC[C@@H]4[C@@]5(C)CC[C@H](OC(=O)CC(C)(C)C(=O)O)C(C)(C)[C@@H]5CC[C@]43C)[C@@H]12 [Compound 51ii, (3β)-17-[2-[[2-(4-Hydroxypiperidin-1-yl)ethyl]amino]ethyl]-28-norlup-20(29)-en-3-ol, 3-(1-Hydrogen 2,2-Dimethylbutanedioate)] | 29.5 (3) % | – | 70.1% | –
C=C(C)[C@@H]1CC[C@]2(CNCCN3CCN(Cc4ccccc4)CC3)CC[C@]3(C)[C@H](CC[C@@H]4[C@@]5(C)CC[C@H](OC(=O)CC(C)(C)C(=O)O)C(C)(C)[C@@H]5CC[C@]43C)[C@@H]12 [Compound 51w, (3β)-28-[[2-[4-(Phenylmethyl)piperazin-1-yl]ethyl]amino]lup-20(29)-en-3-ol, 3-(1-Hydrogen 2,2-Dimethylbutanedioate) Sesquisulfate] | 9.6% | 21.6% | 16.3% | 50.1%
CCN1CCC(NCC[C@]23CC[C@@H](C4(C)CC4)[C@@H]2[C@H]2CC[C@@H]4[C@@]5(C)CC[C@H](OC(=O)CC(C)(C)C(=O)O)C(C)(C)[C@@H]5CC[C@@]4(C)[C@]2(C)CC3)CC1 [Compound 51k] | – | 27.3 (2) % | – | 55.0 (2) %
C=C(C)[C@@H]1CC[C@]2(CCCNCCN3CCS(=O)(=O)CC3)CC[C@]3(C)[C@H](CC[C@@H]4[C@@]5(C)CC[C@H](OC(=O)CC(C)(C)C(=O)O)C(C)(C)[C@@H]5CC[C@]43C)[C@@H]12 [Compound 51dd, (3β)-17-[[[3-[2-(1,1-Dioxothiomorpholin-4-yl)]Ethyl]Amino]Propyl]-28-norlup-20(29)-en-3-ol, 3-(1-Hydrogen 2,2-Dimethylbutanedioate) Sulfate] | 5.9% | 7.3% | 8.2% | 9.7%
C=C(C)[C@@H]1CC[C@]2(CCNCCCN3CCN(CCOC)CC3)CC[C@]3(C)[C@H](CC[C@@H]4[C@@]5(C)CC[C@H](OC(=O)CC(C)(C)CC(=O)O)C(C)(C)[C@@H]5CC[C@]43C)[C@@H]12 [Compound 51e, (3β)-17-[2-[[3-[4-(2-Methoxyethyl)piperazin-1-yl]propyl]amino]ethyl]-28-norlup-20(29)-en-3-ol, 3-(Hydrogen 3,3-Dimethylpentanedioate)] | – | 23.1 (3) % | – | 70.4 (3) %
C=C(C)[C@@H]1CC[C@]2(CCNCCC(=O)N3CCN(C)CC3)CC[C@]3(C)[C@H](CC[C@@H]4[C@@]5(C)CC[C@H](OC(=O)CC(C)(C)CC(=O)O)C(C)(C)[C@@H]5CC[C@]43C)[C@@H]12 [Compound 51b, (3β)-17-[2-[[3-(4-Methylpiperazin-1-yl)-3-oxopropyl]amino]ethyl]-28-norlup-20(29)-en-3-ol, 3-(Hydrogen 3,3-Dimethylpentanedioate)] | – | 21.0% | – | 58.0%
C=C(C)[C@@H]1CC[C@]2(CCNCCN3CCN(Cc4ccccn4)CC3)CC[C@]3(C)[C@H](CC[C@@H]4[C@@]5(C)CC[C@H](OC(=O)CC(C)(C)C(=O)O)C(C)(C)[C@@H]5CC[C@]43C)[C@@H]12 [Compound 51u, (3β)-17-[2-[[2-[4-(2-Pyridinylmethyl)piperazin-1-yl]ethyl]amino]ethyl]-28-norlup-20(29)-en-3-ol, 3-(1-Hydrogen 2,2-Dimethylbutanedioate)] | 30.2 (2) % | – | 53.8% | –
C=C(C)[C@@H]1CC[C@]2(CCCNCCCN3CCCC3)CC[C@]3(C)[C@H](CC[C@@H]4[C@@]5(C)CC[C@H](OC(=O)CC(C)(C)C(=O)O)C(C)(C)[C@@H]5CC[C@]43C)[C@@H]12 [Compound 51aa, (3β)-17-[3-[[3-(1-Pyrrolidinyl)propyl]amino]propyl]-28-norlup-20(29)-en-3-ol, 3-(1-Hydrogen 2,2-Dimethylbutanedioate) Sulfate] | 5.3% | 14.4% | 12.5% | 45.2%
C=C(C)[C@@H]1CC[C@]2(CCNCCN3CCN(Cc4cccc5ccccc45)CC3)CC[C@]3(C)[C@H](CC[C@@H]4[C@@]5(C)CC[C@H](OC(=O)CC(C)(C)C(=O)O)C(C)(C)[C@@H]5CC[C@]43C)[C@@H]12 [Compound 51q, (3β)-17-[2-[[2-[4-(1-Naphthalenylmethyl)piperazin-1-yl]ethyl]amino]ethyl]-28-norlup-20(29)-en-3-ol, 3-(1-Hydrogen 2,2-Dimethylbutanedioate)] | 11.6% | – | 26.8% | –
CN1CCN(CCCNCC[C@]23CC[C@@H](C4(C)CC4)[C@@H]2[C@H]2CC[C@@H]4[C@@]5(C)CC[C@H](OC(=O)CC(C)(C)C(=O)O)C(C)(C)[C@@H]5CC[C@@]4(C)[C@]2(C)CC3)CC1 [Compound 51i, (3β)-17-[2-[[3-(4-Methylpiperazin-1-yl)propyl]amino]ethyl]-20,29-methano-28-norlupan-3-ol, 3-(1-Hydrogen 2,2-Dimethylbutanedioate)] | – | 22.0% | – | 71.9%
C=C(C)[C@@H]1CC[C@]2(CCNCCN3CCC(S(C)(=O)=O)CC3)CC[C@]3(C)[C@H](CC[C@@H]4[C@@]5(C)CC[C@H](OC(=O)CC(C)(C)C(=O)O)C(C)(C)[C@@H]5CC[C@]43C)[C@@H]12 [Compound 51gg, (3β)-17-[2-[[2-[4-(Methylsulfonyl)piperidin-1-yl]ethyl]amino]ethyl]-28-norlup-20(29)-en-3-ol, 3-(1-Hydrogen 2,2-Dimethylbutanedioate)] | 30.9% | – | 57.7% | –
CC(C)(CC(=O)O[C@H]1CC[C@]2(C)[C@H]3CC[C@@H]4[C@H]5[C@H](C6(C)CC6)CC[C@]5(CCNCCN5CCCC5)CC[C@@]4(C)[C@]3(C)CC[C@H]2C1(C)C)C(=O)O [Compound 51h, (3β)-17-[2-[[2-(1-Pyrrolidinyl)ethyl]amino]ethyl]-20,29-methano-28-norlupan-3-ol, 3-(1-Hydrogen 2,2-Dimethylbutanedioate)] | – | 20.1% | – | 70.1%
C=C(C)[C@@H]1CC[C@]2(CCNCCN3CCN(Cc4ccc(F)cc4)CC3)CC[C@]3(C)[C@H](CC[C@@H]4[C@@]5(C)CC[C@H](OC(=O)CC(C)(C)C(=O)O)C(C)(C)[C@@H]5CC[C@]43C)[C@@H]12 [Compound 51l, (3β)-17-[2-[[2-[4-(4-Fluorophenylmethyl)piperazin-1-yl]ethyl]amino]ethyl]-28-norlup-20(29)-en-3-ol, 3-(1-Hydrogen 2,2-Dimethylbutanedioate)] | 38.2 (3) % | – | 48.9% | –
C=C(C)[C@@H]1CC[C@]2(CNCCN3CCN(S(C)(=O)=O)CC3)CC[C@]3(C)[C@H](CC[C@@H]4[C@@]5(C)CC[C@H](OC(=O)CC(C)(C)C(=O)O)C(C)(C)[C@@H]5CC[C@]43C)[C@@H]12 [Compound 51x, (3β)-28-[[2-[4-(Methylsulfonyl)piperazin-1-yl]ethyl]amino]lup-20(29)-en-3-ol, 3-(1-Hydrogen 2,2-Dimethylbutanedioate) Sulfate] | 31.0% | 26.9% | 56.6% | 74.3%
